The values below come from US12643866B2, “Small molecule compound serving as JAK kinase inhibitor and use thereof” (TECHNODERMA MEDICINES, INC., priority 2020, dated 2026).

A value given as a limit tells only on which side of the number the result lay.

Type in all cases: biochemical
One test addresses T1, JAK3 (Homo sapiens, UniProt P52333).
T1 sequence (P52333 1-1124): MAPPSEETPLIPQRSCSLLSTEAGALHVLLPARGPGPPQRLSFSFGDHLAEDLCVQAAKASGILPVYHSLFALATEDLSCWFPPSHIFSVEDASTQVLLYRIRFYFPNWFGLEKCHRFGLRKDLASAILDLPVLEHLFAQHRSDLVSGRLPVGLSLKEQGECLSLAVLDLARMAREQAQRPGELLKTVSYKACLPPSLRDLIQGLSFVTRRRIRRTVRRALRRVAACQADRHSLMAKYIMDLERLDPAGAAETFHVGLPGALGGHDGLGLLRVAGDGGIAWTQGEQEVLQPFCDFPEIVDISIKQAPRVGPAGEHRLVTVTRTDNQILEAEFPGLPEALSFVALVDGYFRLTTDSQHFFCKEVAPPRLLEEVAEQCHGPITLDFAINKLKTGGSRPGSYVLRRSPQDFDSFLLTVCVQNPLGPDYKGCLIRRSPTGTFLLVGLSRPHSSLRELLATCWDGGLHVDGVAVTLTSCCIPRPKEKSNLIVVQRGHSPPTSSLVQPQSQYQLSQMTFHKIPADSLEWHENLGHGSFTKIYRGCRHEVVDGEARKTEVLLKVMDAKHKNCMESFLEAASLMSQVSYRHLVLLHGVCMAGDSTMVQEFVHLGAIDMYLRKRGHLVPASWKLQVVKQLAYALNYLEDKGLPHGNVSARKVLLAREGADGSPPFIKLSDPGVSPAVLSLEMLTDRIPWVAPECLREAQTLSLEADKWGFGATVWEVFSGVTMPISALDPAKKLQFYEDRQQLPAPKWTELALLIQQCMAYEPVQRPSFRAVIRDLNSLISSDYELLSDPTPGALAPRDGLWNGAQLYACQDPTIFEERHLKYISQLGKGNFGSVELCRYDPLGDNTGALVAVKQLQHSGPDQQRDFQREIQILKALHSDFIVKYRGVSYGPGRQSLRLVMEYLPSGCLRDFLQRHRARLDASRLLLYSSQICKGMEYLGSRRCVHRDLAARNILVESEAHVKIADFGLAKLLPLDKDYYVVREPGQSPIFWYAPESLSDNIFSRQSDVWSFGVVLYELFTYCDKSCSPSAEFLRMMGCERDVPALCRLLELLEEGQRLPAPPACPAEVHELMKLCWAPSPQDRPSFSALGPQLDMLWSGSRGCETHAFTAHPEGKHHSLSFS
In words: Detection of enzyme activity inhibition of JAK kinases (ULight-JAK substrate, Eu-labeled antibody): JAK3. The settings on record: ATP 10 μM, substrate 50 nM, 1 hour reaction at room temperature; read-out: JAK3 half-maximum inhibitory concentration (IC50). Here is the method: (§1) Test Example 1: Detection of Enzyme Activity Inhibition of Small Molecule Inhibitors of JAK Kinases
(§2) Kinase reaction buffer: The kinase reaction buffer was prepared with the following components: 50 mM HEPES, pH 7.5, 1 mM EGTA, 10 mM MgCl2, 2 mM DTT, and 0.01% Tween20. 1× test buffer: A test buffer was prepared, and the 10× test buffer was diluted with deionized water (deionized water: test buffer=9:1) to obtain the 1× test buffer. 4× kinase solution: JAK kinase was diluted with a kinase reaction buffer to a final concentration of 4× (JAK1:80 nM, JAK2/JAK3/Tyk2:4 nM). 4× substrate solution: ULight™-JAK (Tyr1023) substrate was diluted with the kinase reaction buffer to 200 nM (final concentration: 50 nM). 4×ATP solution: ATP was diluted with the kinase reaction buffer to a final concentration of 4× (JAK1:160 μM, JAK2/JAK3/Tyk2: 40 μM). 4× test compound solution: The compounds to be tested were dissolved in DMSO to prepare 10 mM stock solutions, which were diluted to have the desired concentrations through 3-fold gradient dilution, 10 concentrations were set for each compound, and final concentrations of the test compounds ranged from 10 μM to 0.5 nM. 4× enzyme reaction termination solution: EDTA was dissolved in a 1× test buffer to 40 mM (final concentration of EDTA: 10 mM). 4× test antibody solution: Eu-labeled test antibodies (anti-phosphotyrosine (PT66)) were diluted with 1× test buffer to 8 nM (final concentration of the antibodies: 2 nM).
(§3) 2.5 μL of the 4× kinase solution and 2.5 μL of each of the 4× test compound solutions having different concentrations were added into a 384-well microwell plate sequentially, with 2 duplicate wells set for each concentration, and an enzyme solution blank control group and a negative control group (DMSO group) were also provided. The 384-well plate was oscillated to mix the enzyme and the compound uniformly, centrifuged at 1000 rpm for 1 minute, and incubated at room temperature for 60 minutes. 2.5 μL of the 4× substrate solution was added into the 384-well plate, and centrifuged at 1000 rpm for 1 minute. 2.5 μL of the 4×ATP solution was added into the 384-well plate, and centrifuged at 1000 rpm for 1 minute to start the enzyme reaction. JAK1 reacted at room temperature for 2 hours, and JAK2/JAK3/Tyk2 reacted at room temperature for 1 hour. The final concentration of each component in the JAK1 reaction was: JAK1:20 nM; substrate: 50 nM; and ATP: 40 μM. The final concentrations of the test compounds ranged from 10 μM to 0.5 nM. The final concentration of each component in the JAK2/JAK3/Tyk2 reaction was: JAK2: 1 nM; substrate: 50 nM; and ATP: 10 μM. The final concentrations of the test compounds ranged from 10 μM to 0.5 nM. After the enzyme reaction ended, 5 μL of the 4× enzyme reaction termination solution was added into each well of the 384-well plate, centrifuged at 1000 rpm for 1 minute, and incubated at room temperature for 5 minutes. 5 μL of the 4× test antibody solution (final concentration of the test antibodies was 2 nM) was added into each well of the 384-well plate, centrifuged at 1000 rpm for 1 minute, and incubated at room temperature for 1 hour. After incubation of the antibodies, a signal value of each well was measured with Envision plate reader.
(§4) Assuming that an inhibition rate of the enzyme solution blank control group was 100% and an inhibition rate of the negative control group (DMSO group) was 0%, an inhibition rate corresponding to each concentration was calculated. Nonlinear regression analysis was performed on the concentration logarithm values and corresponding percentage inhibition rates of the test compounds in GraphPad Prism software to obtain the half-maximum inhibitory concentrations (IC50) of the test compounds.

The next test addresses JAK1 (Homo sapiens, UniProt P23458). Kind of test: Detection of enzyme activity inhibition of JAK kinases (ULight-JAK substrate, Eu-labeled antibody): JAK1. The settings on record: JAK1 20 nM, ATP 40 μM, substrate 50 nM, 2 hours reaction at room temperature; read-out: JAK1 half-maximum inhibitory concentration (IC50). Here is the method: as §1, §2, §3, §4
The target of a further test is JAK2 (Homo sapiens, UniProt O60674). In words: Detection of enzyme activity inhibition of JAK kinases (ULight-JAK substrate, Eu-labeled antibody): JAK2. The following applies: JAK2 1 nM, ATP 10 μM, substrate 50 nM, 1 hour reaction at room temperature; read-out: JAK2 half-maximum inhibitory concentration (IC50). As for the experimental part:
as §1, §2, §3, §4

A further test addresses Tyk2 (Homo sapiens, UniProt P29597). In words: Detection of enzyme activity inhibition of JAK kinases (ULight-JAK substrate, Eu-labeled antibody): Tyk2. The settings on record: ATP 10 μM, substrate 50 nM, 1 hour reaction at room temperature; read-out: Tyk2 half-maximum inhibitory concentration (IC50). As for the experimental part:
as §1, §2, §3, §4

Sequence of JAK1 (P23458 whole entry): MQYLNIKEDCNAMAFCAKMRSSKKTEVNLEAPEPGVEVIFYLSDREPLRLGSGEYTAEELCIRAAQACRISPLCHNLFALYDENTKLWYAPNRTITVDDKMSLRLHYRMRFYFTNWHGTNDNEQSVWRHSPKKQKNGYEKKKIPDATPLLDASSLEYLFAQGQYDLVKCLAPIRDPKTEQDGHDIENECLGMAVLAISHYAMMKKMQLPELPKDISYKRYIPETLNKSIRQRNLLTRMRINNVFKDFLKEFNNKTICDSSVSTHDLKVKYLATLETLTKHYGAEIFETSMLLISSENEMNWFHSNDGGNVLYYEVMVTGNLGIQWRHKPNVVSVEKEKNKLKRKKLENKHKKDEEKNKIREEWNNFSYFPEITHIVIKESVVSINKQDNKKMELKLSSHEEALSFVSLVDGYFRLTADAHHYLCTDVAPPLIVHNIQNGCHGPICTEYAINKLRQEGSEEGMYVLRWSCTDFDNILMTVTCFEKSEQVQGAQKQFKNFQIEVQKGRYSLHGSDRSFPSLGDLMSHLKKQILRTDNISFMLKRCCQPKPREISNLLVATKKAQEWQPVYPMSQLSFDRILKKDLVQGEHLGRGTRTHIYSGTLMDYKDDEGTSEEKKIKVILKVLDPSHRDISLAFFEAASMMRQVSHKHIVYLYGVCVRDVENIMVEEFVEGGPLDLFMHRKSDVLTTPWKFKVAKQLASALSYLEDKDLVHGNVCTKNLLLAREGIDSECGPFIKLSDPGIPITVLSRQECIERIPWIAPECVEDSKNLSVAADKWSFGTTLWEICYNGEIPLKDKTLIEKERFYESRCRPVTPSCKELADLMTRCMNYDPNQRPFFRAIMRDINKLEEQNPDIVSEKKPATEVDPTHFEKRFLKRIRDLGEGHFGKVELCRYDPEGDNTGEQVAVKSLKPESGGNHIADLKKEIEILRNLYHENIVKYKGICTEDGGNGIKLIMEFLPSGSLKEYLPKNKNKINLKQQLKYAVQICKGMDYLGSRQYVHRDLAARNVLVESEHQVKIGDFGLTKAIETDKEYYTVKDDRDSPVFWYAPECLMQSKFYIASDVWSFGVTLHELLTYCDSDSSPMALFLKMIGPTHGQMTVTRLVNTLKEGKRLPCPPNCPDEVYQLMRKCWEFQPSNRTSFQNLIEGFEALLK
Sequence of Tyk2 (P29597 whole entry): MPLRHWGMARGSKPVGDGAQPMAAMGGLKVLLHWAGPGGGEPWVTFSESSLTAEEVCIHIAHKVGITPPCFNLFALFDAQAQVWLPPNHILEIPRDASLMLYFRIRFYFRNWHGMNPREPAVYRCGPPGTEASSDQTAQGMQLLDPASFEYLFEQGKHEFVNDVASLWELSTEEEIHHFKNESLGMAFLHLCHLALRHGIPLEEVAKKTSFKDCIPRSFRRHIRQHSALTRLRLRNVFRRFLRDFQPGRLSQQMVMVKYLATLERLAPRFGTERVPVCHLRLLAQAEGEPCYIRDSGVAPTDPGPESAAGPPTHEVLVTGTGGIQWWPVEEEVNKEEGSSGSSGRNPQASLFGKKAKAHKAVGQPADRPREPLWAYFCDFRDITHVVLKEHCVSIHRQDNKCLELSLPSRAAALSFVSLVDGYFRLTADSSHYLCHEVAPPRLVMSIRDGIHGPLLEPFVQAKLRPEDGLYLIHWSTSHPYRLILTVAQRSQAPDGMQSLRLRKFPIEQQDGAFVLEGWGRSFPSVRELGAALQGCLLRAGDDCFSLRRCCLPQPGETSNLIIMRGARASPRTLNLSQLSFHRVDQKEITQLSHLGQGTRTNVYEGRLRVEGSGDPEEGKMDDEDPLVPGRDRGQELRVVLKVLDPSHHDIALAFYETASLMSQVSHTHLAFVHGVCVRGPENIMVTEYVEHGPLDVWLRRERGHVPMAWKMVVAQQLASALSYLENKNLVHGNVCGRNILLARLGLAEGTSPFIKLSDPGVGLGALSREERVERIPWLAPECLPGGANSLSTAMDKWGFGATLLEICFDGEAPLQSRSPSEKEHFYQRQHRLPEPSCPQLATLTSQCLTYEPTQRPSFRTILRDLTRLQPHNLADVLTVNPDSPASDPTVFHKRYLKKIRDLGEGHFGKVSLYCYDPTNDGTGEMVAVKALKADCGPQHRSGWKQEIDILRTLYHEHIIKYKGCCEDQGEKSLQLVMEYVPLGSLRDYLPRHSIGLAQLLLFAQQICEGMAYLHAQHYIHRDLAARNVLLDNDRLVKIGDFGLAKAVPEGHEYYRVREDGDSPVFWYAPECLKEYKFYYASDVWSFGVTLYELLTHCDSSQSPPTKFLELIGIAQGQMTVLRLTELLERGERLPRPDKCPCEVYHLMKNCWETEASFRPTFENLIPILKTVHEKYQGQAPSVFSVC
Sequence of JAK2 (O60674 whole entry): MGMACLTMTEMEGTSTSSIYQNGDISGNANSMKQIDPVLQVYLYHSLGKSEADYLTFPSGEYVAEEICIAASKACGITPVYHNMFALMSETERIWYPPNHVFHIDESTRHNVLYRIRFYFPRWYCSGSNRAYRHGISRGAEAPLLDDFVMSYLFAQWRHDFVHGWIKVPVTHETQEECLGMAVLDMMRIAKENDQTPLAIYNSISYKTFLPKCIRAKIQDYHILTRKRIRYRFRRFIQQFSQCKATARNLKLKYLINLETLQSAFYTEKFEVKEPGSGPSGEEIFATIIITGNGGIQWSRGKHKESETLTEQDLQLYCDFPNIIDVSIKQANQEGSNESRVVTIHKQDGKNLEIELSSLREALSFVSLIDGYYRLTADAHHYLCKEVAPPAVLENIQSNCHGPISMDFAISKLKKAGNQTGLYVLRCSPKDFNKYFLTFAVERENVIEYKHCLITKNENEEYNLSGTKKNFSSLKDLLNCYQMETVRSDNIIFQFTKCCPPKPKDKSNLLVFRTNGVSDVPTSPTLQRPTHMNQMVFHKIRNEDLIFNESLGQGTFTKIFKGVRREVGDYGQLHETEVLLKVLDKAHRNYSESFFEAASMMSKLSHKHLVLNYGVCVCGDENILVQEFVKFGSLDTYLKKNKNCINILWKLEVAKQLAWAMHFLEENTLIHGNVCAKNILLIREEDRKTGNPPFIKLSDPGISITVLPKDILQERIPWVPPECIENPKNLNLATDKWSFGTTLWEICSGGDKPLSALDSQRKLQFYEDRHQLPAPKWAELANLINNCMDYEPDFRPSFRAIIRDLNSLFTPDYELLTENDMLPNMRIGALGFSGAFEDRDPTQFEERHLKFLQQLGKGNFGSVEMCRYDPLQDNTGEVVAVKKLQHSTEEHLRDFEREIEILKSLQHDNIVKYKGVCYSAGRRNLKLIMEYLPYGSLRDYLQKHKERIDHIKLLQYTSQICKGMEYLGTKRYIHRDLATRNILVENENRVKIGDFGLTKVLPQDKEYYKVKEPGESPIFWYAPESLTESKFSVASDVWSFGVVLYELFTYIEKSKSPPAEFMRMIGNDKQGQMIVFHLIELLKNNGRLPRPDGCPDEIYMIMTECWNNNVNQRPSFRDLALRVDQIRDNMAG

On to `CCNC(=O)c1ccc(Nc2nccc(-c3ccc(NC(=O)[C@@H]4CC4(F)F)nc3)n2)cc1` [TDM-180971, (S)-4((4-(6-(2,2-difluorocyclopropane-1-formamido)pyridin-3-yl)pyrimidin-2-yl)amino)-N-ethyl benzamide], for which the IC50 on JAK3 was determined as 219 nM; on JAK1 it was 6 nM; on JAK2, 7 nM; at Tyk2, 5 nM.

`CCNC(=O)c1ccc(Nc2nccc(-c3ccc(NC(=O)[C@@H]4CC4(F)F)cc3)n2)cc1` [TDM-180972]: the IC50 was 117 nM on JAK3, 4 nM on JAK1, 3 nM on JAK2 and 5 nM on Tyk2.

For `Cc1cc(Nc2nccc(-c3ccc(NC(=O)[C@@H]4CC4(F)F)cc3)n2)cnc1C(N)=O` [TDM-180974], the IC50 at JAK3 amounted to 346 nM; on JAK1, 7 nM; at JAK2, 7 nM; at Tyk2, 8 nM.

Take `CCNC(=O)c1ccc(Nc2nccc(-c3ccc(NC(=O)[C@@H]4CC4(F)F)cc3)n2)cc1C` [TDM-180977, (S)-4-(4-(4-(4-(2,2-difluorocyclopropane-1-carboxamido)phenyl)pyrimidin-2-yl)amino)-N-ethyl-2-methylbenzamide]: the IC50 on JAK3 is 57 nM.

Turning to `CNC(=O)c1ncc(Nc2nccc(-c3ccc(NC(=O)[C@@H]4CC4(F)F)nc3)n2)cc1C` [TDM-180979, (S)-5((4-(6-(2,2-difluorocyclopropane-1-carboxamido)pyridin-3-yl)pyrimidin-2-yl)amino)-N,3-dimethylpyridinolineamide], the IC50 at JAK3 was 931 nM; at JAK1, 25 nM; at JAK2, 33 nM; at Tyk2, 17 nM.

Regarding `Cc1cc(Nc2nccc(-c3ccc(NC(=O)[C@@H]4CC4(F)F)nc3)n2)cnc1C(N)=O` [TDM-180980, (S)-5-((4-(6-(2,2-difluorocyclopropane-1-carboxamido)pyridin-3-yl)pyrimidin-2-yl)amino)-3-methyl pyridinolineamide], the IC50 is more than 5000 nM on JAK3, 28 nM on JAK1, 30 nM at JAK2 and 18 nM on Tyk2.

In the case of `CNC(=O)c1ncc(Nc2nccc(-c3ccc(NC(=O)[C@@H]4CC4(F)F)cc3)n2)cc1C` [TDM-180981], the IC50 at JAK3 amounted to 183 nM; on JAK1 it was 8 nM; at JAK2, 8 nM; on Tyk2, 8 nM.

With `CCNC(=O)c1ccc(Nc2nccc(-c3ccc(NC(=O)[C@@H]4CC4(F)F)nc3)n2)cc1C` [TDM-180984, (S)-4-((4-(6-(2,2-difluorocyclopropane-1-carboxamido)pyridin-3-yl)pyrimidin-2-yl)amino)-N-ethyl-2-methylbenzamide], the IC50 amounted to 105 nM on JAK3, 8 nM on JAK1, 9 nM at JAK2 and 5 nM at Tyk2.

For `CC(CO)c1ccc(Nc2nccc(-c3ccc(NC(=O)[C@@H]4CC4(F)F)nc3)n2)cn1` (stereo partly shown) [TDM-180987], the IC50 at JAK3 stood at 310 nM; at JAK1 it was 25 nM; on JAK2, 22 nM; at Tyk2, 17 nM.

For `CC(CO)c1ccc(Nc2nccc(-c3ccc(NC(=O)[C@@H]4CC4(F)F)cc3)n2)cn1` (stereo partly shown) [TDM-180989], the IC50 on JAK3 was 177 nM; on JAK1 it was 11 nM; at JAK2 it was 13 nM; at Tyk2 it was 14 nM.
